Earlier results in patent publication US10351563B2, “Biaryl kinase inhibitors” (BRISTOL-MYERS SQUIBB COMPANY, priority 2014, dated 2019).

How the values were obtained:
HCV = conditions: Huh-7.5 cells
AAK1 = AAK1 (Homo sapiens (Human), UniProt Q2M2I8)
Sequence of AAK1 (Q2M2I8 whole entry, species assumed): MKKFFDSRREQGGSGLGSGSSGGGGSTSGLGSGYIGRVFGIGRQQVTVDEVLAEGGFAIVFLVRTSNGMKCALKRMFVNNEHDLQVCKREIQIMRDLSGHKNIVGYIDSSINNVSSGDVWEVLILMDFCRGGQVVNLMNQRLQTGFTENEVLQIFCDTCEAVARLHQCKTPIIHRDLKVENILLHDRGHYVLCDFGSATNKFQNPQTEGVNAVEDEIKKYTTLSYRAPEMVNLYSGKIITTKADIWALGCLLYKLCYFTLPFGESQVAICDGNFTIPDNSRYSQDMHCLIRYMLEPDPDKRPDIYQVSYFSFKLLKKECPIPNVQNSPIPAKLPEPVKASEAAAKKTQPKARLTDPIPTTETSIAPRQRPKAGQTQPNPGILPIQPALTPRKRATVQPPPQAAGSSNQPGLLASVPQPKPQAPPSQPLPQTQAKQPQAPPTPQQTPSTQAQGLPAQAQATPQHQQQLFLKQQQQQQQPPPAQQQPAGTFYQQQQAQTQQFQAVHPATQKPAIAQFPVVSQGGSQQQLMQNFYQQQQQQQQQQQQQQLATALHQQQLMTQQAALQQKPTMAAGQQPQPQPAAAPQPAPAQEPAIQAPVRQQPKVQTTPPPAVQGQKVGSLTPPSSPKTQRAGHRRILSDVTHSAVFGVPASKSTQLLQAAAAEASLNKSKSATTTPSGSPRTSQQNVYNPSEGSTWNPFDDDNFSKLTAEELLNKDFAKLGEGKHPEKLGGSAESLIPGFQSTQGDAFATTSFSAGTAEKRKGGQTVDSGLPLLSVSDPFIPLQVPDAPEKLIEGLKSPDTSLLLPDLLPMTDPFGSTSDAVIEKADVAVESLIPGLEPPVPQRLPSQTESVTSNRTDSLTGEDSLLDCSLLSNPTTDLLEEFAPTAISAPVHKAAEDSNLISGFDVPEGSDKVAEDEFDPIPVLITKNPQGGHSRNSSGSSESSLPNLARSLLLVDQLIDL

Row | Structure (SMILES) | HCV entry (HCV) | HCV virion assembly (HCV) | AAK1 kinase activity inhibition (AAK1) | Neuregulin-1 induced neurite outgrowth (PC12 cells)
1 | CCN(CC)CCNC(=O)c1c(C)[nH]c(/C=C2\C(=O)Nc3ccc(F)cc32)c1C [sunitinib] | inhibit HCV entry | reduced HCV virion assembly | potent AAK1 inhibitor | –
2 | COC(=O)[C@@]1(O)C[C@H]2O[C@]1(C)n1c3ccccc3c3c4c(c5c6ccccc6n2c5c31)C(=O)NC4 [Example K252a, K252a] | – | – | inhibits AAK1 kinase activity | potentiation of Neuregulin-1 induced neurite outgrowth
